Broadly, the MIC80 is the lowest concentration that inhibits either 80% of growth or 80% of the strains tested, depending on the study.

Our source for the MIC80 values is patent US20250313546A1, “NUCLEIC ACID BINDERS” (UNIVERSITY OF STRATHCLYDE, priority 2022, published 2025).

Common to all, as to assay: Antibacterial MIC, broth microdilution (CLSI)
Common to all, as to type: cell-based
Background: Broth dilution looks for growth in wells or tubes with falling amounts of substance.

Assay [1] deals with Enterococcus faecalis (ATCC 51299). To be noted: Enterococcus faecalis, ATCC51299; read-out: MIC80 E. faecalis.
The test system of assay [2] is Escherichia coli (ATCC 25922). The conditions noted are these: Escherichia coli, ATCC25922; read-out: MIC80 E. coli.
Assay [3] has as its system Staphylococcus aureus (ATCC 43300). The conditions noted are these: Staphylococcus aureus, ATCC43300; read-out: MIC80 S. aureus.

In brackets after ≈: the same amount, converted by molar mass.

As for `C/N=C(/CCNC(=O)c1cc(NC(=O)c2cc(NC(=O)c3ccc(/C=C/c4cncnc4)cc3)cn2C)cn1C)NC` [Ia60, 1-methyl-4-(1-methyl-4-(4-((E)-2-(pyrimidin-5-yl)vinyl)benzamido)-1H-pyrrole-2-carboxamido)-N—((Z)-3-(methylamino)-3-(methylimino)propyl)-1H-pyrrole-2-carboxamide], the MIC80 in assay [1] is 5 to 25 µM (≈ 2.84 to 14.2 µg/mL); in assay [2], over 100 µM; in assay [3] it was under 5 µM.

As for `C/N=C(\CCNC(=O)c1cc(NC(=O)c2cc(NC(=O)c3ccc(/C=C/c4cccc(OC)c4)cc3)cn2C)cn1C)NC` [Ia53, 4-(4-((E)-3-methoxystyryl)benzamido)-1-methyl-N-(1-methyl-5-(((E)-3-(methylamino)-3-(methylimino)propyl)carbamoyl)-1H-pyrrol-3-yl)-1H-pyrrole-2-carboxamide], the MIC80 is 5 to 25 µM (≈ 2.98 to 14.9 µg/mL) in assay [1], over 100 µM in assay [2] and under 5 µM in assay [3].

As for `CCCNC(=O)c1cc(NC(=O)c2cc(NC(=O)c3ccc(/C=C/c4cnc5ccccc5c4)cc3)cn2C)cn1C` [IVa17, (E)-1-methyl-4-(1-methyl-4-(4-(2-(quinolin-3-yl)vinyl)benzamido)-1H-pyrrole-2-carboxamido)-N-propyl-1H-pyrrole-2-carboxamide], the MIC80 in assay [1] was under 5 µM; in assay [2], over 100 µM; in assay [3] it was under 5 µM.

Turning to `CCCCCCC[N+]1(CCNC(=O)c2cc(NC(=O)c3cc(NC(=O)c4ccc(/C=C/c5cnc6ccccc6c5)cc4)cn3C)cn2C)CCOCC1` [Id2, (E)-4-heptyl-4-(2-(1-methyl-4-(1-methyl-4-(4-(2-(quinolin-3-yl)vinyl)benzamido)-1H-pyrrole-2-carboxamido)-1H-pyrrole-2-carboxamido)ethyl)morpholin-4-ium], the MIC80 in assay [1] is over 100 µM; in assay [2], over 100 µM; in assay [3] it was under 5 µM.

Turning to `COCCNC(=N)CCNC(=O)c1cc(NC(=O)c2cc(NC(=O)c3ccc(/C=C/c4cnc5ccccc5c4)cc3)cn2C)cn1C` [Ia58, (E)-N-(3-imino-3-((2-methoxyethyl)amino)propyl)-1-methyl-4-(1-methyl-4-(4-(2-(quinolin-3-yl)vinyl)benzamido)-1H-pyrrole-2-carboxamido)-1H-pyrrole-2-carboxamide], the MIC80 in assay [1] is 5 to 25 µM (≈ 3.23 to 16.2 µg/mL); in assay [2], over 100 µM; in assay [3], under 5 µM.

For the compound `CN(C)c1ccc(/C=C/c2ccc(C(=O)Nc3cc(C(=O)Nc4cc(C(=O)NCCCCCC(=N)N)n(C)c4)n(C)c3)cn2)cc1` [II4, (E)-N-(5-((5-((6-amino-6-iminohexyl)carbamoyl)-1-methyl-1H-pyrrol-3-yl)carbamoyl)-1-methyl-1H-pyrrol-3-yl)-6-(4-(dimethylamino)styryl)nicotinamide], the MIC80 is over 100 µM in assay [1], over 100 µM in assay [2] and 5 to 25 µM (≈ 3.12 to 15.6 µg/mL) in assay [3].

For `Cn1cc(NC(=O)c2cc(NC(=O)c3ccc(/C=C/c4cnc5ccccc5c4)cc3)cn2C)cc1C(=O)NCCCCCC(=N)N` [II3, (E)-N-(6-amino-6-iminohexyl)-1-methyl-4-(1-methyl-4-(4-(2-(quinolin-3-yl)vinyl)benzamido)-1H-pyrrole-2-carboxamido)-1H-pyrrole-2-carboxamide], the MIC80 in assay [1] is over 100 µM; in assay [2], over 100 µM; in assay [3], 5 to 25 µM (≈ 3.15 to 15.8 µg/mL).

For `CCCCCC[N+]1(CCNC(=O)c2cc(NC(=O)c3cc(NC(=O)c4ccc(/C=C/c5cnc6ccccc6c5)cc4)cn3C)cn2C)CCOCC1` [Id1, (E)-4-hexyl-4-(2-(1-methyl-4-(1-methyl-4-(4-(2-(quinolin-3-yl)vinyl)benzamido)-1H-pyrrole-2-carboxamido)-1H-pyrrole-2-carboxamido)ethyl)morpholin-4-ium], the MIC80 in assay [1] is over 100 µM; in assay [2], over 100 µM; in assay [3], under 5 µM.

On to `CONC(=N)CCNC(=O)c1cc(NC(=O)c2cc(NC(=O)c3ccc(/C=C/c4cccc(OC)c4)cc3)cn2C)cn1C` [Ia29, (E)-N-(3-imino-3-(methoxyamino)propyl)-4-(4-(4-(3-methoxystyryl)benzamido)-1-methyl-1H-pyrrole-2-carboxamido)-1-methyl-1H-pyrrole-2-carboxamide], for which the MIC80 in assay [1] is 5 to 25 µM (≈ 2.99 to 14.9 µg/mL); in assay [2] it was over 100 µM; in assay [3] it was under 5 µM.

As for `Cn1cc(NC(=O)c2cc(NC(=O)c3ccc(/C=C/c4cnc5ccccc5c4)cc3)cn2C)cc1C(=O)NCCC(=N)NCCN1CCSCC1` [Ia47, (E)-N-(3-imino-3-((2-thiomorpholinoethyl)amino)propyl)-1-methyl-4-(1-methyl-4-(4-(2-(quinolin-3-yl)vinyl)benzamido)-1H-pyrrole-2-carboxamido)-1H-pyrrole-2-carboxamide], the MIC80 in assay [1] was over 100 µM; in assay [2], over 100 µM; in assay [3], 5 to 25 µM (≈ 3.59 to 17.9 µg/mL).

Regarding `COCCNC(=O)c1cc(NC(=O)c2cc(NC(=O)c3ccc(/C=C/c4cnc5ccccc5c4)cc3)cn2C)cn1C` [IVa18, (E)-N-(2-methoxyethyl)-1-methyl-4-(1-methyl-4-(4-(2-(quinolin-3-yl)vinyl)benzamido)-1H-pyrrole-2-carboxamido)-1H-pyrrole-2-carboxamide], the MIC80 in assay [1] was under 5 µM; in assay [2], over 100 µM; in assay [3], under 5 µM.

In the case of `[H]/N=C(\CCNC(=O)c1cc(NC(=O)c2cc(NC(=O)c3ccc(C=Cc4ccc(N(C)C)cc4)nc3)cn2C)cn1C)NCCN1CCSCC1` [Ia52, (E)-6-(4-(dimethylamino)styryl)-N-(5-((5-((3-imino-3-((2-thiomorpholinoethyl)amino)propyl)carbamoyl)-1-methyl-1H-pyrrol-3-yl)carbamoyl)-1-methyl-1H-pyrrol-3-yl)nicotinamide], the MIC80 in assay [1] was over 100 µM; in assay [2] it was over 100 µM; in assay [3], 5 to 25 µM (≈ 3.55 to 17.8 µg/mL).

Take `Cn1cc(NC(=O)c2cc(NC(=O)c3ccc(/C=C/c4cnc5ccccc5c4)cc3)cn2C)cc1C(=O)NCCCCC(=N)N` [II1, (E)-N-(5-amino-5-iminopentyl)-1-methyl-4-(1-methyl-4-(4-(2-(quinolin-3-yl)vinyl)benzamido)-1H-pyrrole-2-carboxamido)-1H-pyrrole-2-carboxamide]: the MIC80 was over 100 µM in assay [1], over 100 µM in assay [2] and 25 to 100 µM (≈ 15.4 to 61.7 µg/mL) in assay [3].

Take `CC/N=C(/CCNC(=O)c1cc(NC(=O)c2cc(NC(=O)c3ccc(/C=C/c4cnc5ccccc5c4)cc3)cn2C)cn1C)NCC` [Ia50, N—((Z)-3-(ethylamino)-3-(ethylimino)propyl)-1-methyl-4-(1-methyl-4-(4-((E)-2-(quinolin-3-yl)vinyl)benzamido)-1H-pyrrole-2-carboxamido)-1H-pyrrole-2-carboxamide]: the values for the MIC80 in assay [1], in assay [2] and in assay [3] were 25 to 100 µM (≈ 16.1 to 64.5 µg/mL), over 100 µM and 25 to 100 µM (≈ 16.1 to 64.5 µg/mL), respectively.

On to `Cn1cc(NC(=O)c2cc(NC(=O)c3ccc(/C=C/c4cnc5ccccc5c4)cc3)cn2C)cc1C(=O)NCCC(=N)NCCc1ccccc1` [Ia48, (E)-N-(3-imino-3-(phenethylamino)propyl)-1-methyl-4-(1-methyl-4-(4-(2-(quinolin-3-yl)vinyl)benzamido)-1H-pyrrole-2-carboxamido)-1H-pyrrole-2-carboxamide], for which the MIC80 in assay [1] was under 5 µM; in assay [2] it was over 100 µM; in assay [3] it was under 5 µM.

Take `CNC(=N)CCNC(=O)c1cc(NC(=O)c2cc(NC(=O)c3ccc(/C=C/c4ccc(OC)cc4)nc3)cn2C)cn1C` [Ia55, (E)-N-(5-((5-((3-imino-3-(methylamino)propyl)carbamoyl)-1-methyl-1H-pyrrol-3-yl)carbamoyl)-1-methyl-1H-pyrrol-3-yl)-6-(4-methoxystyryl)nicotinamide]: the values for the MIC80 in assay [1], in assay [2] and in assay [3] were 5 to 25 µM (≈ 2.91 to 14.6 µg/mL), over 100 µM and 5 to 25 µM (≈ 2.91 to 14.6 µg/mL), respectively.

As to `[H]/N=C(\CCNC(=O)c1cc(NC(=O)c2cc(NC(=O)c3ccc(C=Cc4ccc(N(C)C)cc4)nc3)cn2C)cn1C)NCCc1ccccc1` [Ia49, (E)-6-(4-(dimethylamino)styryl)-N-(5-((5-((3-imino-3-(phenethylamino)propyl)carbamoyl)-1-methyl-1H-pyrrol-3-yl)carbamoyl)-1-methyl-1H-pyrrol-3-yl)nicotinamide], the MIC80 was over 100 µM in assay [1], over 100 µM in assay [2] and under 5 µM in assay [3].

As for `[H]/N=C(\CCNC(=O)c1cc(NC(=O)c2cc(NC(=O)c3ccc(C=Cc4ccc(N(C)C)cc4)nc3)cn2C)cn1C)NOC` [Ia31, (E)-6-(4-(dimethylamino)styryl)-N-(5-((5-((3-imino-3-(methoxyamino)propyl)carbamoyl)-1-methyl-1H-pyrrol-3-yl)carbamoyl)-1-methyl-1H-pyrrol-3-yl)nicotinamide], the MIC80 is 5 to 25 µM (≈ 3.06 to 15.3 µg/mL) in assay [1], over 100 µM in assay [2] and under 5 µM in assay [3].

For `[H]/N=C(\CCNC(=O)c1cc(NC(=O)c2cc(NC(=O)c3ccc(C=Cc4ccc(N(C)C)cc4)nc3)cn2C)cn1C)N1CCN(C)CC1` [Ib10, (E)-6-(4-(dimethylamino)styryl)-N-(5-((5-((3-imino-3-(4-methylpiperazin-1-yl)propyl)carbamoyl)-1-methyl-1H-pyrrol-3-yl)carbamoyl)-1-methyl-1H-pyrrol-3-yl)nicotinamide], the figures for the MIC80 in assay [1], in assay [2] and in assay [3] were over 100 µM, over 100 µM and 5 to 25 µM (≈ 3.32 to 16.6 µg/mL), respectively.

Take `CC/N=C(/CCNC(=O)c1cc(NC(=O)c2cc(NC(=O)c3ccc(/C=C/c4ccc(N(C)C)cc4)nc3)cn2C)cn1C)NCC` [Ia51, 6-((E)-4-(dimethylamino)styryl)-N-(5-((5-(((Z)-3-(ethylamino)-3-(ethylimino)propyl)carbamoyl)-1-methyl-1H-pyrrol-3-yl)carbamoyl)-1-methyl-1H-pyrrol-3-yl)nicotinamide]: the MIC80 is 25 to 100 µM (≈ 15.9 to 63.8 µg/mL) in assay [1], over 100 µM in assay [2] and 25 to 100 µM (≈ 15.9 to 63.8 µg/mL) in assay [3].
